Patent US4113957A, “1-Substituted pyrazoles” (Bayer Aktiengesellschaft, priority 1975, dated 1978)

Test system: venous thrombs (left jugular vein)
Experiment: Antithrombotic action: thromb formation in supercooled jugular vein of rats
Type: in vivo
Conditions: Rattus norvegicus, po, 10 mg/kg orally, reduction of thromb size vs control, after 4 hours
Procedure: The left jugular vein of rats weighing 170 to 180 g was exposed under ether narcosis and supercooled to -12° C. for 2 minutes to stimulate thromb formation. The thromb was isolated from the vein 4 hours later, and was weighed. The test animals were given the test preparation in tragacanth mucilage immediately before supercooling the wall of the blood vessel. As a result, the protective antithrombotic activity was tested in the first 4 hours after stimulating thromb formation.

Work on `Cc1cc(OC(=O)c2ccco2)n(CCOc2ccc3ccccc3c2)n1` [Example 20, 5-(Furyl-(2)-carbonyloxy)-3-methyl-1-(2-(β-naphthyloxy)-ethyl)-pyrazole] yielded an inhibition at 10 mg/kg of 61%.
